The values below come from US5326776A, “Angiotensin II receptor antagonists” (Abbott Laboratories, priority 1993, dated 1994).

Each structure is given as a SMILES string.

In one data set the target is T1, angiotensin II receptor (Oryctolagus cuniculus, UniProt P34976).
T1 construct: Main abdominal aortas were removed and placed in Krebs-Henseleit buffer at room temperature; from tissue; host or cells: main abdominal aorta rings (3 mm) of female New Zealand White rabbits
T1 sequence (P34976 1-359): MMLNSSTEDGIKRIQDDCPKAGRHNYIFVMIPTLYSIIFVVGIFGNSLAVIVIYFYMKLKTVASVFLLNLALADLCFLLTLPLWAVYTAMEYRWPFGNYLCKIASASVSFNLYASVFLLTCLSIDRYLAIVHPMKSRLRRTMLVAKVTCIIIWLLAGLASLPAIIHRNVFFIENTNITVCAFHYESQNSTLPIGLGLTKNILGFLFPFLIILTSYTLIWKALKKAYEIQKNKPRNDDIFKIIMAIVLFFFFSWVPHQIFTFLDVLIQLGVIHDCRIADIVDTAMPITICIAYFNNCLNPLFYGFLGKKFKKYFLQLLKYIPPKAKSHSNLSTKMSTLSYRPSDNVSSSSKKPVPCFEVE
Briefly: Antagonism of contraction of rabbit aorta (angiotensin II functional assay, isolated rabbit aorta, pA2). Further details: species or system rabbit (female New Zealand White). The note with it: angiotensin II as agonist, 30 minutes incubation with antagonist, Schild analysis, negative logarithm of [A]2. The source says: ANGIOTENSIN II FUNCTIONAL ASSAY: Antagonism of Contraction of Rabbit Aorta
The protocol reported by A. T Chiu and P. Timmermans (P. C. Wong, et al. Hypertension, 13, 489-497 (1989)) was followed with a few modifications. Female New Zealand White rabbits weighing 2-5 kg were sedated with carbon dioxide and then sacrificed. Main abdominal aortas were removed and placed in Krebs-Henseleit buffer at room temperature. […]
______________________________________
Buffer Component mM Concentration
potassium dihydrogen phosphate
sodium bicarbonate 20.00
EDTA* disodium calcium salt
*EDTA = ethylenediamine tetraacetic acid
The buffer contained no cocaine, propanolol or steroid.
The pH of the buffer was 7.40 at 37° C. when saturated with 5%
carbon dioxide/95% oxygen.
The tissues were cleaned of extraneous connective tissue, cut into 3 mm rings, and suspended within a 10 mL tissue bath. All dilutions of peptide preparations were made with 0.3% aqueous BSA. The tissues were primed with 55 mM potassium chloride. Tissues were pre-loaded with 1 g of tension. Tension was recorded on a model 7 Grass polygraph using FT03 transducers. At the end of the equilibrium period, a control cumulative concentration-contractile response curve for angiotensin II (A II: 1×10^-10 -10^-8 M) was obtained. The tissue was washed several times until the baseline was reached. Forty five minutes later, test compound (antagonist) was added and the tissue was incubated for 30 minutes. The concentration-response curve for A II was then repeated in the presence of the test compound. One dose of antagonist was tested per tissue only. For single dose shift experiments a dose of 1 mM of test compound was used, for a full pA2 experiment multiple doses were used depending upon the potency of the antagonist.
All responses to the control agonist were calculated as a percentage of the maximum response. These points in duplicate were plotted and analyzed according to standard Schild analysis (H. O. Schild, British J Pharmacology and Chemotherapy, 2, 189-206 (1947). The pA2 values calculated for the compounds of the invention are shown in Table 6. The pA2 value is the negative logarithm of the [A]2 value. [A]2 is the concentration of antagonist which necessitates doubling the agonist concentration in order to achieve the agonist effect which was measured in the absence of antagonist.
The pA2 value, therefore, is a measure of the effectiveness of the compound as an antagonist.

The test system of the next data set is angiotensin II. The note with it: background statement; cited from earlier work.
For data set [1] the following is noted: peptide; cited from earlier work.
The test system of the next data set is angiotensin receptor. The note with it: in vivo; cited from earlier work.

Take `CCCCN(Cc1ccc(-c2ccccc2-c2nnn[nH]2)cc1)c1nncs1` [Example 12, 2-{N-Butyl-N-[(2'-[1H-tetrazol-5-yl]biphenyl-4-yl)methyl]amino}-1,3,4-thiadiazole]: the Kb at angiotensin II receptor is 20 nM.

Molecule `CCCCN(Cc1ccc(-c2ccccc2-c2nn[nH]n2)cc1)c1scnc1C(=O)O` [Example 3, 5-{N-Butyl-N-[(2'-[1H-tetrazol-5-yl]biphenyl-4-yl)methyl]amino}thiazole-4-carboxylic acid] showed a Kb at angiotensin II receptor of 6.31 nM.

`CCCCN(Cc1ccc(-c2ccccc2-c2nnn[nH]2)cc1)c1nc(SC)n(C)c1C(=O)OCC` [Example 1, Ethyl 4-{N-butyl-N-[(2'-[1H-tetrazol-5-yl]biphenyl-4-yl)methyl]amino}-1-methyl-2-(methylthio)imidazole-5-carboxylate]: on angiotensin II receptor, the Kb was 105 nM.

At angiotensin II receptor, `CCCc1nc(N(CCC)Cc2ccc(-c3ccccc3-c3nn[nH]n3)cc2)sc1C(=O)O` [Example 31, 2-{N-Propyl-N-[(2'-[1H-tetrazol-5-yl]biphenyl-4-yl)methyl]amino}thiazole-4-propyl-5-carboxylic acid] had a Kb of 37.2 nM.

On angiotensin II receptor, `CCCN(Cc1ccc(-c2ccccc2-c2nn[nH]n2)cc1)c1ncc(C(=O)O)s1` [Example 28, 2-{N-Propyl-N-[(2'-[1H-tetrazol-5-yl]biphenyl-4-yl)methyl]amino}thiazole-5-carboxylic acid] showed a Kb of 13.5 nM.

`CCCCN(Cc1ccc(-c2ccccc2-c2nn[nH]n2)cc1)c1ncn(CC)c1C(=O)OC(C)(C)C` [Example 5, tert-Butyl 4-{N-butyl-N-[(2'-[1H-tetrazol-5-yl]biphenyl-4-yl)methyl]amino}-1-(N-ethyl)imidazole-5-carboxylate] showed a Kb at angiotensin II receptor of 87.1 nM.

The molecule `CCCN(Cc1ccc(-c2ccccc2-c2nn[nH]n2)cc1)c1nn(C)cc1C(=O)O` [Example 14, 1-Methyl-3-{N-propyl-N-[(2'-[1H-tetrazol-5-yl]biphenyl-4-yl)methyl]amino}pyrazole-4-carboxylic acid] gave a Kb on angiotensin II receptor of 11.5 nM.

`CCCCN(Cc1ccc(-c2ccccc2-c2nn[nH]n2)cc1)c1snnc1C(=O)O` [Example 10, 5-[N-Butyl-N-[[2'-(1H-tetrazol-5-yl)biphenyl-4-yl]methyl]amino]-1,2,3-thiadiazole-4-carboxylic acid] showed an antagonist dissociation constant (Kb) at angiotensin II receptor of 4.37 nM.

As for `CCCN(Cc1ccc(-c2ccccc2-c2nn[nH]n2)cc1)c1nc(C(F)(F)F)c(C(=O)O)s1` [Example 30, 2-{N-Propyl-N-[(2'-[1H-tetrazol-5-yl]biphenyl-4-yl)methyl]amino}thiazole-4-trifluoromethyl-5-carboxylic acid], the antagonist equilibrium constant (Kb) at angiotensin II receptor was 27.5 nM.

On angiotensin II receptor, `CCCN(Cc1ccc(-c2ccccc2-c2nn[nH]n2)cc1)c1nc(C)c(C(=O)O)s1` [Example 29, 4-Methyl-2-{N-propyl-N-[(2'-[1H-tetrazol-5-yl]biphenyl-4-yl)methyl]amino}thiazole-5-carboxylic acid] gave a Kb of 2.34 nM.

Consider `CCCCN(Cc1ccc(-c2ccccc2-c2nn[nH]n2)cc1)c1ncc(C(=O)O)s1` [Example 27, 2-{N-Butyl-N-[(2'-[1H-tetrazol-5-yl]biphenyl-4-yl)methyl]amino}thiazole-5-carboxylic acid], for which the Kb on angiotensin II receptor is 1.66 nM.

For the molecule `CCCCN(Cc1ccc(-c2ccccc2-c2nnn[nH]2)cc1)c1nnc(C(=O)OCC)s1` [Example 11, Ethyl 2-{N-Butyl-N-[(2'-[1H-tetrazol-5-yl]biphenyl-4-yl)methyl]amino}-1,3,4-thiadiazole-5-carboxylate], on angiotensin II receptor, the antagonist dissociation constant (Kb) was 2.95 nM.

Turning to `CNCC(=O)N[C@@H](CCCN=C(N)N)C(=O)N[C@H](C(=O)N[C@@H](Cc1ccc(O)cc1)C(=O)N[C@H](C(=O)N[C@@H](Cc1cnc[nH]1)C(=O)N1CCC[C@H]1C(=O)N[C@@H](C)C(=O)O)C(C)C)C(C)C` [saralasin, [Sar^1,Ala^8] angiotensin II], in the data set with angiotensin II, the “antagonist of the actions of angiotensin II” value is recorded as “potent antagonist of the actions of angiotensin II”. Besides, the oral bioavailability entry in data set [1] is “very poor oral bioavailability”. The “blood pressure after intravenous administration” value in the data set on angiotensin receptor is “initial increase in blood pressure after intravenous administration”.

`CCCCN(Cc1ccc(-c2ccccc2-c2nn[nH]n2)cc1)c1cn(CC)cn1` [Example 6, 4-{N-Butyl-N-[(2'-[1H-tetrazol-5-yl]biphenyl-4-yl)methyl]amino}-1-(N-ethyl)imidazole]: on angiotensin II receptor, the Kb is 7.59 nM.

With `CCCCN(Cc1ccc(-c2ccccc2-c2nnn[nH]2)cc1)c1snnc1C(=O)OCC` [Example 9, Ethyl 5-{N-butyl-N-[(2'-[1H-tetrazol-5-yl]biphenyl-4-yl)methyl]amino}-1,2,3-thiadiazole-4-carboxylate], on angiotensin II receptor, the Kb was 16.6 nM.

For orientation: Kb means the affinity of an antagonist, worked out from how it opposes an agonist. High values mean a less potent antagonist, low ones a more potent antagonist.
